Experimental data: patent US8030466B2, “3′-o-fluorescently modified nucleotides and uses thereof” (Korea Institute of Science and Technology, priority 2009, dated 2011)

Target: T1, Therminator II DNA polymerase (Thermococcus sp., UniProt Q56366, A485L/D141A/E143A/Y409V)
T1 construct: purchased New England Biolabs, Inc. (printed for the ThermoPol II buffer; inferred for the enzyme)
Assay: Extension of DNA primer with MRT by polymerase (MALDI-TOF MS readout)
Type: biochemical
Procedure: The reaction was consisted of 20 cycles at 94° C. for 20 sec, 46° C. for 40 sec, and 60° C. for 90 sec. After the reaction, the mixture was incubated with strepatavidin-coated magnetic beads ([…], Dynabead MyOne, Invitrogen) in PBS buffer ([…]) at room temperature for 30 min.
After removing a fluorescent group from the 3′-end as the same manner as described in Example 4, the obtained DNA was purified by reverse-phased HPLC. The purified DNA was used as a primer for the second extension reaction with the MRT. The extension was performed by the same manner as described in Example 2. The resultant product was characterized using MALDI-TOF mass spectrometry (FIG. 3d).

T1 sequence (Q56366 whole entry D141A/E143A/Y409V/A485L): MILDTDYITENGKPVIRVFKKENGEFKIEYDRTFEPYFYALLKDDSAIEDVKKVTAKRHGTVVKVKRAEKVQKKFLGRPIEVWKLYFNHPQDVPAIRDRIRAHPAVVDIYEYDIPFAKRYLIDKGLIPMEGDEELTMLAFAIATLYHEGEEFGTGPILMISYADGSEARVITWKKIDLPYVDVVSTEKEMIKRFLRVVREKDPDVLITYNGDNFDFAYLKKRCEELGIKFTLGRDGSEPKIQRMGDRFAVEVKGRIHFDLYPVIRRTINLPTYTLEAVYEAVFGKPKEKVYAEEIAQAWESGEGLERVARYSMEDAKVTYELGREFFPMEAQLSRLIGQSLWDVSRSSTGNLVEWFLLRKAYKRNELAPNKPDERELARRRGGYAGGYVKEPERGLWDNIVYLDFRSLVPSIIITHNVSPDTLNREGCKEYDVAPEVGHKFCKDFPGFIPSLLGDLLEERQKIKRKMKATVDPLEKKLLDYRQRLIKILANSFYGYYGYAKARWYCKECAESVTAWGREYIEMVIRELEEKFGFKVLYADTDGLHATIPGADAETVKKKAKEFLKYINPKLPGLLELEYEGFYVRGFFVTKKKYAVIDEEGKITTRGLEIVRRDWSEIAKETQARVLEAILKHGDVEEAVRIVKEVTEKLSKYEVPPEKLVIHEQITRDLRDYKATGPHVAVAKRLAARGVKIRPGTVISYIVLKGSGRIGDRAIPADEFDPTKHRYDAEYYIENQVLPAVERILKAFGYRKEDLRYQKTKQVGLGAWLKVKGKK

## 3′-O-(7-hydroxycoumarin)-dTTP [Compound 13]
Biotinylated primer/template, 4 units Therminator II DNA polymerase, 20 cycles
  primer extension by MRT: the primer was extended by MRT
deprotected, HPLC-purified extended primer used as primer, Therminator II DNA polymerase
  second primer extension by MRT after label elimination: the primer chain could be extended again by another MRT
